Experimental data: patent EP1658846B1, “N-(8,8,8-trifluorooctyl)-1,5-dideoxy-1,5-imino-D-glucitol for treating hepatitis virus infections” (priority 1999, dated 2000)
Values after ≈ are worked out from the molar mass of the structure shown. Read-outs that look alike come from different tables or passages of the source.

Key:
HepG2.2.15 cells = assay: Cell viability by trypan blue exclusion; format: cell-based; settings: 3 days, cells excluding trypan blue
Hepatitis B Virus = assay: HBV secretion from chronically HBV secreting HepG2.2.15 cells (preS1 immunoprecipitation of virions, PCR); format: cell-based; settings: for Relative amount of HBV secreted as a % of Control: 3 days, control = 100
Procedure: (§1) The anti-hepatitis B virus activity and effect on cell viability of a number of different N-substituted-1,5-dideoxy-1,5-imino-D-glucitol compounds were assessed using an in vitro assay employing chronically hepatitis B virus secreting HepG2.2.15 cells. The method employed was essentially that described in Block et al. (1994) Proc. Natl. Acad. Sci. USA 91:2235-2239.

[1] = test system: woodchuck hepatitis virus (WHV); assay: Monotherapy in woodchuck model, BID oral dosing for 4 weeks; format: in vivo
Procedure: Therefore, five groups of four animals each (all groups had both sexes, all but the control had two of each sex) were assigned to 0, 12.5, 25, 50, and 100 mg/kg/day with BID oral dosing. These were lab-reared wild animals. All animals were infected with woodchuck hepatitis virus (WHV) as neonates, and had been tested positive on serological tests for WHV surface antigen. Blood samples were drawn one week prior to dosing (-1 week), immediately before dosing (0 weeks), weekly during dosing (1, 2, 3, and 4 weeks), and after the end of dosing (5, 6, 8, and 10 weeks).
(§2) There are two measures of drug efficacy: reduction in total HBV DNA (measured by quantitative PCR), and reduction in HBV DNA from capsids with intact surface glycoproteins, which is the active form of the virus (measured by an ELISA-like immune precipitation assay followed by quantitative PCR).
Before models are fitted to the data, a log transform was applied because: 1) the variation in IPDNA increases with increasing IPDNA values; the log transformation gives values with a nearly constant variation, and 2) it is expected that drug effects will appear as a constant multiplier of the IPDNA level. Because there are zero values of IPDNA, a small value (about 1/2 of the smallest non-zero value) was added to all values before the log transform.
Two approaches were used to model the changes in slope to week with dose of N-nonyl-DNJ: a linear modeling approach and a nonlinear model. Both approaches assume that the (linear) rate of change of the Log(IPDNA) measure over the dosing period is the "right" measure to reflect the effect of the drug on the virus. Both approaches are fit in stages, and the first stage is common to both approaches. First, a simple straight line regression model is fit using weeks 0-4 to predict log(IPDNA_+_10) separately for each animal by run combination. In the second stage, the response variable is the slope fitted in the first stage.
For the linear approach, a model is fit with slope to week as the response where run is considered a block, dose has a significant effect (almost all of this effect is due to a slope to dose), and the relevant error for testing the effect of dose is the variation among animals treated alike (after the adjustment for the runs as blocks). This is similar to using the calibration data within each run to first adjust each run's data to a common virus DNA concentration; the difference is that here the data from the woodchucks are used for the run adjustment rather than only the calibration data.
For the nonlinear approach, a four parameter logistic model is fit with the slope to week as the response and the dose as the predictor. […]

HBV DNA = assay: Cell culture experiments with N-nonyl-DNJ: total HBV DNA and immune precipitated DNA; format: cell-based
Description: as §2

[2] = test system: HepG 2.2.15 (2.2.15) cells; assay: IC-90 values used for the combostat dilutions (unpublished observation / literature); format: cell-based; settings: Hepatitis B virus, HepG2.2.15, T. Block and G. Jacob
Procedure: The anti-hepatitis B virus effect of […] (3TC) alone and in combination with N-nonyl-DNJ was determined according to Korba ((1996) Antiviral Research 29(1):49-51), using the "combostat" strategy (Comstat Program, Combostat Corp., Duluth, MN). The combostat method involves serially diluting the IC-90 of each compound. The IC-90 of N-nonyl-DNJ has been determined to be between 4 and 10 µg/ml (T. Block and G. Jacob, unpublished observation). The accepted IC-90 for 3TC in HepG 2.2.15 (2.2.15) cells is 300nM to 500nM (Doong et al. (1991) Proc. Natl. Acad. Sci. USA 88:8495-8499).

[3] = Cell viability by trypan blue exclusion; format: cell-based; settings: human, hepg2.2.15 cells, 3 days, cells excluding trypan blue, read-out: % Viable +/-1 S.D.
[4] = MTT-based colorimetric cell viability assay; settings: human, hepg2.2.15 cells; read-out: [] for a 50% reduction in MMT
Procedure: as §1
• 1: N-(n-nonyl)-1,5-dideoxy-1,5-imino-D-glucitol • 2: N-(n-butyl)-1,5-dideoxy-1,5-imino-D-glucitol, diacetate • 3: 1,5-dideoxy-1,5-imino-D-glucitol, tetracetate • 4: N,O-(1,6-carbonyl)-1,5-dideoxy-1,5-imino-D-glucitol • 5: N-(n-butyl)-2,3-dimethoxy-1,5-dideoxy-1,5-imino-D-glucitol • 6: N-(n-hexyl)-4,6-benzylidine-1,5-dideoxy-1,5-imino-D-glucitol • 7: N-(n-butyl)-3-methoxy-1,5-dideoxy-1,5-imino-D-glucitol • 8: N-(4,4,4-triflourobutyl)-2,3-dimethoxy-1,5-dideoxy-1,5-imino-D-glucitol, tetracetate • 9: N,O-(1,6-methylenecarbonyl)-1,5-dideoxy-1,5-irriino-D-glucitol • 10: N-(8,8,8-triflourooctyl)-1,5-dideoxy-1,5-imino-D-glucitol MMT: 3-(4,5-dimethylthiazol-2-yl)-2,5-diphenyltetrazolium bromide. The MTT-based colorimetric assay is a measurement of cell viability (Heo et al. (1990) Cancer Research 50:3681-3690).

[5] = concentration [200] (unit not given)
[6] = concentration [1000] (unit not given)

Compound	% Viable +/-1 S.D. (HepG2.2.15 cells; [5])	% Viable +/-1 S.D. (HepG2.2.15 cells; [6])	Relative amount of HBV secreted as a % of Control (Hepatitis B Virus; [5])	Relative amount of HBV secreted as a % of Control (Hepatitis B Virus; [6])	[ ] for 90% HBV secretion inhibition (Hepatitis B Virus; duplicate PCR results, * lowest concentration tested, ** no inhibition at the highest concentration used (200 microgs/ml))	decrease of IPDNA at the minimum slope ([1]; corresponds to the average minimum slope)	average minimum slope observed ([1]; printed as 'fewer' (a decrease), weeks 0-4)	effect on total HBV DNA measurements ([1]; quantitative PCR, all dose levels, pre-dose and dosed portions of the study)	IPDNA levels over the dosing period ([1]; weeks 0-4, immune precipitation followed by quantitative PCR)	effect on immune precipitated DNA (IPDNA) (HBV DNA)	effect on total HBV DNA (HBV DNA)	IC90 [2] [µg/mL]	viability at 72 h ([3]; concentration [200] (unit inferred)) [%]	viability at 72 h ([3]; concentration [1000] (unit inferred)) [%]	% Viable +/-1 S.D. (HepG2.2.15 cells; concentration [200] (unit not given), listed as 1, 4320 min)	CC50 [4] [µg/mL]	IC90 (Hepatitis B Virus; Hepatitis B virus, HepG2.2.15, duplicate PCR results, * lowest concentration tested, ** no inhibition at the highest concentration used (200 microgs/ml), read-out: [ ] for 90% HBV secretion inhibition) [µg/mL]
1,5-(butylimino)-1,5-dideoxy-D-glucitol, tetraacetate [Example 2]	90 +/-6 (n=4) %	89 +/-4 (n=4) %	107.0 +/-12 (n=3) %	38.0 +/-15 (n=3) %	>200*s* microgs per ml												
CCCCCCCCCN1C[C@H](O)[C@@H](O)[C@H](O)[C@H]1CO [Compound 1 (Table 3), N-(n-nonyl)-1,5-dideoxy-1,5-imino-D-glucitol]						about 25 %/week	0.31 Log(IPDNA g/mL)/week	no effect	high dose animals tended to have decreasing levels of IPDNA	marked effect	little or no effect	4 to 10					
CCCCN1C[C@H](O)[C@@H](O)[C@H](O)[C@H]1CO [NBDNJ, N-(n-butyl-)-1,5-dideoxy-1,5-imino-D-glucitol]			37.0 +/-13 (n=15) %	3.2 +/-5 (n=15) %									94 ± 6	87 ± 3	90 +/-2 (n=4) %	100 to 200 (≈ 456 to 912 µM)	0.5 to 1 (≈ 2.28 to 4.56 µM)
